From patent publication US20160279098A1, “NOVEL METHODS” (EUTHYMICS BIOSCIENCE, INC., priority 2013, published 2016)
Values belong to the compound of their own block, whether it stands above or below them.

Columns and labels:
Format in all cases: in vivo, human
[1] = system: patients with major depressive disorder; assay: Clinical Global Impression of Improvement (CGI-I) in MDD trial; settings: amitifadine 50 mg or 100 mg; paroxetine 40 mg at both 6 and 12 weeks
Text: (§1) A multicenter, randomized, double blind, placebo- and paroxetine-controlled trial of amitifadine for major depressive disorder (MDD) non-responsive to an adequate trial of an antidepressant therapy in the current depressive episode. A sequential parallel comparison design (SPCD) is utilized. […] The study is 12 weeks in duration, with two 6-week phases. The primary outcome measure is change on the Montgomery Asberg Depression Rating Scale (MADRS). Secondary outcomes include Hamilton Rating Scale for Depression (HAM-D), Clinical Global Impression of Improvement (CGI-I), Sexual Functioning Inventory (SFI), Clinical Global Impression (Improvement and Severity versions), and the Massachusetts General Hospital (MGH) Cognitive and Physical Functioning Questionnaire (MGH-CPFQ). Male and female patients, between the ages of 18-65, are eligible who had MDD, based on the Structured Clinical Interview for DSM Disorders (SCID) interview, and validated by remote raters, a history of non-response to an adequate trial of an antidepressant during the current episode of MDD (an adequate dose for >8 weeks), and a HAM-D-17 score of >18 at screening. […]

[2] = system: patients with major depressive disorder; assay: Montgomery Asberg Depression Rating Scale (MADRS) in MDD trial
Text: as §1, with “(MGH-CPFQ).” for “(MGH-CPFQ). Male and female patients, between the ages of 18-65, are eligible who had MDD, based on the Structured Clinical Interview for DSM Disorders (SCID) interview, and validated by remote raters, a history of non-response to an adequate trial of an antidepressant during the current episode of MDD (an adequate dose for >8 weeks), and a HAM-D-17 score of >18 at screening.”
In addition to standard inclusion criteria the trial requires: 1) diagnosis of MDD, based on the Structured Clinical Interview for DSM Disorders Clinical Trials version (SCID-CT), validated by remote independent raters using the SAFER criteria interview, 2) one and only one antidepressant therapy (ADT) failure in the current episode of MDD, treated with an adequate dose of one of an allowed standard antidepressant (paroxetine or an monoamine oxidase inhibitor (MAOI) not allowed) during the current episode for >6 weeks, with the same, adequate dose for >4 weeks, 3) HAM-D17≧18 at the end of screening phase, 4)<25% reduction in Quick Inventory of Depressive Symptoms Self-Rated (QIDS-SR) score between the screen and baseline visits. Inadequate response: defined as <50% reduction in depressive symptom severity, assessed by the MGH Antidepressant Treatment Response Questionnaire (ATRQ) administered by remote, independent raters (Targum, S. et al., CNS Neuroscience & Therapeutics, 2010, 16 (5), 322-325). […]
The primary efficacy assessment is the MADRS, administered at every study visit and clinicians complete it by using a structured interview guide developed by Massachusetts General Hospital (MGH). […] Vital signs are recorded at each visit; physical exam is performed at screen and week 12 (or early termination). […]

[3] = system: patients with major depressive disorder; assay: Sexual Functioning Inventory (SFI) in placebo- and paroxetine-controlled MDD trial; parameters: scale not given here; settings: LOCF
Text: A sequential parallel comparison design (SPCD) is utilized. […] The study is 12 weeks in duration, with two 6-week phases. The primary outcome measure is change on the Montgomery Asberg Depression Rating Scale (MADRS). Secondary outcomes include Hamilton Rating Scale for Depression (HAM-D), Clinical Global Impression of Improvement (CGI-I), Sexual Functioning Inventory (SFI), Clinical Global Impression (Improvement and Severity versions), and the Massachusetts General Hospital (MGH) Cognitive and Physical Functioning Questionnaire (MGH-CPFQ). Male and female patients, between the ages of 18-65, are eligible who had MDD, based on the Structured Clinical Interview for DSM Disorders (SCID) interview, and validated by remote raters, a history of non-response to an adequate trial of an antidepressant during the current episode of MDD (an adequate dose for >8 weeks), and a HAM-D-17 score of >18 at screening.
In addition to standard inclusion criteria the trial requires: 1) diagnosis of MDD, based on the Structured Clinical Interview for DSM Disorders Clinical Trials version (SCID-CT), validated by remote independent raters using the SAFER criteria interview, 2) one and only one antidepressant therapy (ADT) failure in the current episode of MDD, treated with an adequate dose of one of an allowed standard antidepressant (paroxetine or an monoamine oxidase inhibitor (MAOI) not allowed) during the current episode for >6 weeks, with the same, adequate dose for >4 weeks, 3) HAM-D17≧18 at the end of screening phase, 4)<25% reduction in Quick Inventory of Depressive Symptoms Self-Rated (QIDS-SR) score between the screen and baseline visits. Inadequate response: defined as <50% reduction in depressive symptom severity, assessed by the MGH Antidepressant Treatment Response Questionnaire (ATRQ) administered by remote, independent raters (Targum, S. et al., CNS Neuroscience & Therapeutics, 2010, 16 (5), 322-325). An adequate trial is defined as an ADT>6 weeks at least at the minimum dose specified in the MGH ATRQ.
The SCID-CT is administered by study clinicians at the screening visit to diagnose Axis I disorders. The remote, independent raters also administer the SAFER Criteria Inventory (SCI) during the screening phase to assess whether the MDD is a “valid” clinical entity.
The primary efficacy assessment is the MADRS, administered at every study visit and clinicians complete it by using a structured interview guide developed by Massachusetts General Hospital (MGH). The primary tolerability assessment is the change in the SFI, completed by the patient at every study visit. The MGH-CPFQ, a brief self-report inventory to assess rates of significant cognitive symptoms, sleepiness and fatigue, is filled out by patients at every visit. The Columbia-Suicide Severity Rating Scale (C-SSRS) (Posner K. et al., American Journal of Psychiatry, 2011, 168 (12)1266-77) is administered at every visit. Vital signs are recorded at each visit; physical exam is performed at screen and week 12 (or early termination). Laboratory tests are obtained at screen, baseline, and weeks 2, 4, 6, 8, 10, 12 (or early termination). Twelve-lead ECGs are obtained at screen, baseline, and weeks 3, 6, 9, 12 (or early termination). Consumptive habits (smoking, alcohol, and caffeinated beverages) are recorded at every visit. Adverse events and concomitant medications are collected at every visit.

[4] = system: patients with major depressive disorder; assay: as above; parameters: Mean Change from Baseline SFI, Item 3 / Mean Change from Baseline SFI, Item 4 / Mean Change from Baseline SFI, Item 5 / Mean Change from Baseline SFI Total / Mean Change from Baseline SFI, Item 1 / Mean Change from Baseline SFI, Item 2: scale not given here; settings: amitifadine 100 mg
[5] = system: patients with major depressive disorder; assay: Vital signs (heart rate, blood pressure) in MDD trial; settings: amitifadine 50 mg and 100 mg
Text: as §1, with “(MGH-CPFQ).” for “(MGH-CPFQ). Male and female patients, between the ages of 18-65, are eligible who had MDD, based on the Structured Clinical Interview for DSM Disorders (SCID) interview, and validated by remote raters, a history of non-response to an adequate trial of an antidepressant during the current episode of MDD (an adequate dose for >8 weeks), and a HAM-D-17 score of >18 at screening.”
The primary efficacy assessment is the MADRS, administered at every study visit and clinicians complete it by using a structured interview guide developed by Massachusetts General Hospital (MGH). […] Vital signs are recorded at each visit; physical exam is performed at screen and week 12 (or early termination). […] Consumptive habits (smoking, alcohol, and caffeinated beverages) are recorded at every visit. […]

[6] = both genders, amitifadine 100 mg vs paroxetine 40 mg
[7] = LOCF, female, compare vs placebo
[8] = female, amitifadine 100 mg, compare vs placebo

Structure (SMILES): Fc1ccc([C@@H]2CCNC[C@H]2COc2ccc3c(c2)OCO3)cc1 [Paroxetine, reference compound]
CGI-Improvement compared to placebo [1]: significant difference
improvement compared to both placebo and amitifadine 50 mg ([2]; exploratory analyses, paroxetine 40 mg): significantly better improvement
Mean Change from Baseline SFI Total [3, 6]: −1.52
Mean Change from Baseline SFI, Item 1 [3, 6]: −0.57
Mean Change from Baseline SFI, Item 2 [3, 6]: −0.45
Mean Change from Baseline SFI, Item 3 [3, 6]: −0.27
Mean Change from Baseline SFI, Item 4 [3, 6]: −0.13
Mean Change from Baseline SFI, Item 5 [3, 6]: −0.23

individual items of the SFI (anorgasmia, arousal, overall satisfaction) versus paroxetine ([4]; most individual items): significantly less impairing
Structure (SMILES): Clc1ccc([C@]23CNC[C@H]2C3)cc1Cl [Amitifadine]
Mean Change from Baseline SFI Total [4, 7]: −4.41
Mean Change from Baseline SFI, Item 1 [4, 7]: −1.16
Mean Change from Baseline SFI, Item 3 [4, 7]: −0.97
Mean Change from Baseline SFI Total ([4]; LOCF, male, compare vs placebo): −3.12
Mean Change from Baseline SFI, Item 1 ([4]; LOCF, male, compare vs placebo): −0.83
Mean Change from Baseline SFI, Item 2 ([4]; LOCF, male, compare vs placebo): −0.83
Mean Change from Baseline SFI, Item 3 ([4]; LOCF, male, compare vs placebo): −0.58
Mean Change from Baseline SFI, Item 4 ([4]; LOCF, male, compare vs placebo): −0.79
Mean Change from Baseline SFI, Item 5 ([4]; LOCF, male, compare vs placebo): −0.88
SFI change from baseline compared with placebo in women ([4]; post-hoc analyses by gender, women): significant improvement
CGI-Improvement compared to placebo [1]: no significant differences
changes in heart rate or blood pressure [5]: Neither dose is associated with significant changes
difference between paroxetine and amitifadine 100 mg in improvement ([2]; exploratory analyses): non-significant
MADRS change from baseline compared to placebo ([2]; primary analysis, amitifadine 50 mg or 100 mg, paroxetine 40 mg): no significant difference
Mean Change from Baseline SFI Total [3, 6]: −3.86
Mean Change from Baseline SFI, Item 1 [3, 6]: −1.02
Mean Change from Baseline SFI, Item 2 [3, 6]: −1.00
Mean Change from Baseline SFI, Item 3 [3, 6]: −0.80
Mean Change from Baseline SFI, Item 4 [3, 6]: −0.79
Mean Change from Baseline SFI, Item 5 [3, 6]: −1.00
Mean Change from Baseline SFI, Item 2 [3, 8]: −1.12
Mean Change from Baseline SFI, Item 5 [3, 8]: −1.09
